Laboratory results as given in patent US20030206946A1, “Methods for therapy of connective tissue disease” (priority 2002, published 2003).

Tests used:
[1] = test system: adjuvant arthritis, right hind paw (with CFA); test: Adjuvant arthritis (CFA), Acute Phase, right hind paw volume; assay type: in vivo, Long Evans rats
Experimental: (§1) A well-ground suspension of killed Mycobacterium tuberculosis (DIFCO, USA; 0.3 mg in 0.1 ml of light mineral oil; Complete Freund's Adjuvant, CFA) was administered into the subplantar region of the right hind paw immediately after first dosing on first day (denoted day 1). Hind paw volume was measured by Plethsmometer (Cat. No. 7150, UGO BASILE, Italy) and Water cell (25 mm diameter, Cat. No. 7157, UGO BASILE, Italy) on day 0 (before CFA treated), 1, 5, 10, and 15 after CFA of right paw (with CFA), and day 0, 14, and 18 of left paw (without CFA); rats were weighed just before first dose and 1 hour after final dose. Right hind paw volume (Acute Phase) was measured 4 hours after CFA treated (denoted as day 1) and day 5, day 10 and day 15 after CFA. The contralateral left hind paw volume (Delayed Phase) was measured at day 14 and day 18. The inflammatory activity in this model was denoted by values calculated during the Acute Phase as well as the Delayed Phase.
(§2) The animal model for connective tissue disease was established according to the report by Winter C A, et al., Arthritis Rheum. 1966, 9:394-404. Groups of 5 Long Evans rats weighing 150±20 g were used. The 10% of phenylbutyrate cream and 1% of trichostatin A ointment at a dose of 200 mg/paw and 10 mg/paw, respectively, were applied topically twice daily for 18 consecutive days. A well-ground suspension of killed Mycobacterium tuberculosis (DIFCO, USA; 0.3 mg in 0.1 ml of light mineral oil; Complete Freund's Adjuvant, CFA) was administered into the subplantar region of the right hind paw immediately after first dosing on first day (denoted day 1). Hind paw volume was measured by Plethsmometer (Cat. No. 7150, UGO BASILE, Italy) and Water cell (25 mm diameter, Cat. No. 7157, UGO BASILE, Italy) on day 0 (before CFA treated), 1, 5, 10, and 15 after CFA of right paw (with CFA), and day 0, 14, and 18 of left paw (without CFA); rats were weighed just before first dose and 1 hour after final dose. Anti-inflammatory activity in this model was denoted by values calculated during the Acute Phase (the right hind paw volume) as well as the Delayed Phase (the contralateral left hind paw volume). For CFA-injected vehicle control rats, animals were also weighed on day 0 and day 18; CFA-injected vehicle control animals generally gain between 20 to 40 g body weight over this time period. A 30% or more reduction in paw volume relative to vehicle treated controls was considered significant.

[2] = test system: adjuvant arthritis, left hind paw (without CFA); test: Adjuvant arthritis (CFA), Delayed Phase, contralateral left hind paw volume; assay type: in vivo, Long Evans rats; conditions: for systematic inhibition effect in delayed phase (left paw), in words: summary of Table 2
Experimental: as §1, §2

[3] = test system: histone deacetylases; conditions: background statement; cited from earlier work
[4] = test system: acetylated histone H3 in synovial fibroblasts from adjuvant arthritis; test: Accumulation of acetylated histones in synovial fibroblasts (western blot, immunofluorescence with anti-acetylated H3 antibody); assay type: cell-based, rats; conditions: phenylbutyrate 2 mM, trichostatin A 200 nM; 6 h for immunofluorescence
Experimental: At day 10, synovial samples were obtained from the established adjuvant arthritis rats. The collected synovial tissues were digested with 5 mg/ml collagenase (sigma) and 1.5 mg/ml DNase (sigma), and were passed through a wire mesh to prepare isolated cells. Cells (0.5×10^6) were placed in 10-cm dishes with 10 ml RPMI 1640 medium (Gibco) supplemented with 10% fetal calf serum, 2 mM L-glutamine, 50 U/ml penicillin and […] streptomycin. Cells were detached with trypsin-EDTA solution and passed for subculture when 90% confluency was reached. The synovial cells used were of passage 5. Proliferating synovial fibroblasts from adjuvant arthritis were treated with phenylbutyrate or trichostatin A, and proliferation was determined by incorporation of ^3H-thymidine, which was present during last 24 hours of culture. 4-phenylbutyrate (Merck) dissolved in sterile water with NaOH and adjusted to pH 7.2, or sodium phenylbutyrate (Triple Crown, U.S.A) dissolved in sterile water or trichostatin A (sigma) dissolved in ethanol were used. […] Hyperacetylated histones were detected by use of the antibody that specifically recognizes the hyperacetylated form of histone H3 (upstate biotechnology). […] The results were expressed as percentage value relative to the control culture (no drug addition). […]

[5] = test system: TNF-α in the connective tissues of connective tissue disease; test: TNF-α immunohistochemistry of connective tissues in adjuvant arthritis; assay type: in vivo, Long Evans rats; conditions: treated vs vehicle group
[6] = test system: p16 and p21 in synovial fibroblasts from adjuvant arthritis; test: Western blot of p16 and p21 in synovial fibroblasts; assay type: cell-based, rats; conditions: phenylbutyrate 2 mM, trichostatin A 200 nM; 12 h
[7] = test system: inflammation of skin, joints and soft tissues in connective tissue disease; test: Gross views and histology of paw joints, skin and soft tissues in adjuvant arthritis; assay type: in vivo, Long Evans rats; conditions: topical 10% phenylbutyrate cream or 1% trichostatin A ointment vs vehicle
Experimental: as §2, with “A 30% or more reduction in paw volume relative to vehicle treated controls was considered significant.” left out

[8] = test system: p16 in the synovium of connective tissue disease; test: p16 immunohistochemistry of synovium in adjuvant arthritis; assay type: in vivo, Long Evans rats; conditions: treated vs vehicle group
Description: FIGS. 8G-[…] are from lower magnification to higher magnification showing the severe synovial hyperplasia and panus formation in connective tissue disease deteriorating the cartilage and bone of joints (left panel: H&E stain). In contrast, there is no p16 staining in the invasive synovium of the vehicle group when compared to the synovium in the treated group (right panel: immunohistochemistry).

[9] = test system: synovial fibroblasts from adjuvant arthritis; test: Proliferation of synovial fibroblasts by 3H-thymidine incorporation; assay type: cell-based, rats; conditions: 3H-thymidine present during last 24 hours of culture; relative to control culture
Experimental: At day 10, synovial samples were obtained from the established adjuvant arthritis rats. The collected synovial tissues were digested with 5 mg/ml collagenase (sigma) and 1.5 mg/ml DNase (sigma), and were passed through a wire mesh to prepare isolated cells. Cells (0.5×10^6) were placed in 10-cm dishes with 10 ml RPMI 1640 medium (Gibco) supplemented with 10% fetal calf serum, 2 mM L-glutamine, 50 U/ml penicillin and […] streptomycin. Cells were detached with trypsin-EDTA solution and passed for subculture when 90% confluency was reached. The synovial cells used were of passage 5. Proliferating synovial fibroblasts from adjuvant arthritis were treated with phenylbutyrate or trichostatin A, and proliferation was determined by incorporation of ^3H-thymidine, which was present during last 24 hours of culture. 4-phenylbutyrate (Merck) dissolved in sterile water with NaOH and adjusted to pH 7.2, or sodium phenylbutyrate (Triple Crown, U.S.A) dissolved in sterile water or trichostatin A (sigma) dissolved in ethanol were used. […] Hyperacetylated histones were detected by use of the antibody that specifically recognizes the hyperacetylated form of histone H3 (upstate biotechnology).

[10] = Acute Phase, right hind paw volume, topical twice daily x 18 days or PO x 5, parentheses mark 30% or more

Row | SMILES | % Inhibition relative to vehicle treated, Day (5-0) [1, 10] | % Inhibition relative to vehicle treated, Day (10-0) [1, 10] | % Inhibition relative to vehicle treated, Day (15-0) [1, 10] [%] | % Inhibition relative to vehicle treated, Day (1-0) ([1]; Acute Phase, unilateral ankle joint/right hind paw volume, topical twice daily x 18 days or PO x 5, parentheses mark 30% or more (significant)) | anti-inflammatory effect in Acute Phase, in words ([1]; right hind paw, summary of Table 2) | % Inhibition relative to vehicle treated, Day (14-0) ([2]; Delayed Phase, contralateral ankle joint/left hind paw volume, parentheses mark 30% or more) | % Inhibition relative to vehicle treated, Day (18-14) ([2]; Delayed Phase, contralateral left hind paw volume) [%] | % Inhibition relative to vehicle treated, Day (18-0) ([2]; Delayed Phase, contralateral left hind paw volume, parentheses mark 30% or more) [%] | systematic inhibition effect in delayed phase (left paw), in words [2] | concentration range of histone deacetylase inhibition [3] | accumulation of acetylated histones [4] | TNF-α staining in connective tissues [5] | upregulation of p16 and p21, cell cycle inhibitors [6] | suppression of connective tissue disease (swelling, pannus, synovial hyperplasia, lymphocyte infiltration), in words [7] | p16 expression in synovium [8] | growth inhibition of synovial fibroblasts [9]
1 | C[C@]12CCC(=O)C=C1CC[C@@H]1[C@@H]2[C@@H](O)C[C@@]2(C)[C@H]1CC[C@]2(O)C(=O)CO [Hydrocortisone, hydrocortisone] | (35) % | (39) % | 23 | (35) % | marked inhibition effect of hydrocortisone is shown on day 1; however, the effect reduces after day 10 | (30) % | 20 | 27 | partially shown | – | – | – | – | – | – | –
2 | O=C(O)CCCc1ccccc1 [phenylbutyrate, 4-phenylbutyrate] | – | – | – | – | – | – | – | – | not significant | millimolar concentrations | induce an accumulation of acetylated histones | only small amount of TNF-α was stained in the skin | induce upregulation of p16 and p21 | pannus formation is blocked | upregulated | dose- and time- dependent growth inhibition
3 | CC(/C=C/C(=O)NO)=C\[C@@H](C)C(=O)c1ccc(N(C)C)cc1 [trichostatin A] | – | – | – | – | – | – | – | – | not significant | submicromolar range | induce an accumulation of acetylated histones | no TNF-α staining in soft tissues | induce upregulation of p16 and p21 | – | upregulates p16 expression | dose- and time- dependent growth inhibition
